From ChEMBL document CHEMBL4257492, “Discovery of 2-aminoimidazole and 2-amino imidazolyl-thiazoles as non-xanthine human adenosine A3 receptor antagonists: SAR and molecular modeling studies” (Medchemcomm, 2018)
Activity calls are given as the source filed them. The calls are words filed in the database; no cut-off is given here.

Experiments:
[1] = biological target: T1, Adenosine receptor A2b (Homo sapiens) (UniProt P29275); test: Antagonist activity at recombinant human A2B receptor expressed in CHO cell membranes assessed as inhibition of NECA-stimulated adenylyl cyclase activity up to 30 uM; type: functional, cell-based
T1 sequence (whole entry): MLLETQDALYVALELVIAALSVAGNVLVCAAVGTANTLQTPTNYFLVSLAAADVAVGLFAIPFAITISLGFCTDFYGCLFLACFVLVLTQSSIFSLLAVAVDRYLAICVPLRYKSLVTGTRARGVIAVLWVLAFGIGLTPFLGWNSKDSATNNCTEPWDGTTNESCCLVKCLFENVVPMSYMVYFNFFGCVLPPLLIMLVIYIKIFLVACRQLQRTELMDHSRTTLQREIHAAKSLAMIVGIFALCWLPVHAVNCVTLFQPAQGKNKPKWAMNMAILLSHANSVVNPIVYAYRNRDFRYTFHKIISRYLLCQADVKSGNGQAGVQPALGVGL

[2] = biological target: T2, Adenosine receptor A1 (Homo sapiens) (UniProt P30542); test: (§1) Displacement of [3H]CCPA from recombinant human A1 receptor expressed in CHO cell membranes
T2 sequence (whole entry): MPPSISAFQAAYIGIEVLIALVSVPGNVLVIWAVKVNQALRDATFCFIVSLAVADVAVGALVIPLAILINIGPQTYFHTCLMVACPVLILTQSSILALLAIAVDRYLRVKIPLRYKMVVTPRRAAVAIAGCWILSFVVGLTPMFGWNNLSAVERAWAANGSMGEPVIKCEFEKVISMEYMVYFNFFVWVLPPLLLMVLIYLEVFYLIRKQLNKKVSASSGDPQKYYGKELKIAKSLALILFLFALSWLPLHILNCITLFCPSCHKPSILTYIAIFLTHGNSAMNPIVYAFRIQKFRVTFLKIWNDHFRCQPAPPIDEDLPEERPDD

[3] = biological target: T3, Adenosine receptor A3 (Homo sapiens) (UniProt P0DMS8); test: (§2) Displacement of [3H]HEMADO from recombinant human A3 receptor expressed in CHO cell membranes
T3 sequence (whole entry): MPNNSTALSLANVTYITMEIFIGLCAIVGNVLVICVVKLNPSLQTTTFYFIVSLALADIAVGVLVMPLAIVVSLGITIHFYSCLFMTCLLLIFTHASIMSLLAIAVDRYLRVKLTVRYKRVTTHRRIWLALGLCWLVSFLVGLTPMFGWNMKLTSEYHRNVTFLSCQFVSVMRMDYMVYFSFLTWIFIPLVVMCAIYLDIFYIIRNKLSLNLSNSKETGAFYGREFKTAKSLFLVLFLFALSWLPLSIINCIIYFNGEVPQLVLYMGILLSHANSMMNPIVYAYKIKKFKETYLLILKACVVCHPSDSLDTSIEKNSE

Adenosine receptor A1 = biological target: T4, Adenosine receptor A1 (Homo sapiens, UniProt P30542); test: as §1
T4 sequence (P30542 whole entry): T2 sequence (whole entry)

Adenosine receptor A2b = biological target: T5, Adenosine receptor A2b (Homo sapiens, UniProt P29275); test: Antagonist activity at recombinant human A2B receptor expressed in CHO cell membranes assessed as inhibition of NECA-stimulated adenylyl cyclase activity; type: functional, cell-based
T5 sequence (P29275 whole entry): T1 sequence (whole entry)

Adenosine receptor A3 = biological target: T6, Adenosine receptor A3 (Homo sapiens, UniProt P0DMS8); test: as §2
T6 sequence (P0DMS8 whole entry): T3 sequence (whole entry)

Adenosine receptor A2a = Adenosine receptor A2a (Homo sapiens, UniProt P29274); test: Displacement of [3H]NECA from recombinant human A2A receptor expressed in CHO cell membranes
Homo sapiens [4] = species: Homo sapiens; test: Selectivity ratio of Ki for displacement of [3H]NECA from recombinant human A2A receptor expressed in CHO cell membranes to displacement of [3H]HEMADO from recombinant human A3 receptor expressed in CHO cell membranes
Homo sapiens [5] = species: Homo sapiens; test: Selectivity ratio of Ki for displacement of [3H]CCPA from recombinant human A1 receptor expressed in CHO cell membranes to displacement of [3H]HEMADO from recombinant human A3 receptor expressed in CHO cell membranes

Adenosine receptor A2a, sequence (P29274 whole entry): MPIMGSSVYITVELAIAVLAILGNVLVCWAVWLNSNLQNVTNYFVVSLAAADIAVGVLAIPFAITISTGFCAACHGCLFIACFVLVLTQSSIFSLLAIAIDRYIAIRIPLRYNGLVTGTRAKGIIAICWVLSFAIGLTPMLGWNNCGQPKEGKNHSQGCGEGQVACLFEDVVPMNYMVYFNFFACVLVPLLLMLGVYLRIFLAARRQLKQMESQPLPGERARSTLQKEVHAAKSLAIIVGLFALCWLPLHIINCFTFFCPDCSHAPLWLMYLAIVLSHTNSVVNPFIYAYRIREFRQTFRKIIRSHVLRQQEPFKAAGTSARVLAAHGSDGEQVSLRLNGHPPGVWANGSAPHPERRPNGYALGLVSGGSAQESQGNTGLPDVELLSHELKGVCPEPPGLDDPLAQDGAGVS

Compound	inhibition [1]	inhibition [2]	inhibition [3]	Ki (Adenosine receptor A1) [µM]	Ki (Adenosine receptor A2b) [µM]	Ki (Adenosine receptor A3) [µM]	Ki (Adenosine receptor A2a) [µM]	Ratio Ki (Homo sapiens [4])	Ratio Ki (Homo sapiens [5])
CN(C)c1nc(NC(=O)c2ccccc2)sc1C(=O)c1cnc(N)n1-c1ccc(C(F)(F)F)cc1	–	–	–	19.7	> 10	4.92	16.7	–	–
Nc1ncc(C(=O)c2sc(Nc3ccccc3)nc2-c2ccccc2)n1-c1ccc(F)cc1	–	–	–	6.71	> 10	0.305	7.41	20 to 40	20 to 40
COc1ccc(-n2c(C(=O)c3sc(Nc4ccccc4)nc3C)cnc2N)cc1	–	–	–	48.6	> 10	0.574	13.4	20 to 40	20 to 40
COc1ccc(-n2c(C(=O)c3sc(N4CCOCC4)nc3-c3ccccc3)cnc2N)cc1	–	–	–	> 100	> 10	13	> 100	–	–
Cc1nc(Nc2ccccc2)sc1C(=O)c1cnc(N)n1-c1ccc(Cl)cc1	–	–	–	33.5	> 10	0.802	11.2	–	–
COc1ccc(-n2c(C(=O)c3sc(Nc4ccccc4)nc3-c3ccccc3)cnc2N)cc1	–	–	–	3.67	> 10	0.326	8.84	–	–
CS(=O)(=O)c1ccc(C(=O)c2cnc(N)n2-c2ccccc2)cc1	inactive	inactive	Active	–	–	–	–	–	–
Cc1nc(Nc2ccccc2)sc1C(=O)c1cnc(N)n1-c1ccc(F)cc1	–	–	–	39.2	> 10	0.19	8.04	40	200
CN(C)c1nc(NC(=O)c2ccccc2)sc1C(=O)c1cnc(N)n1-c1ccc(Cl)cc1	–	–	–	25.4	> 10	4.32	11.8	–	–
COc1ccc(-n2c(C(=O)c3sc(Nc4ccc(Cl)cc4)nc3C)cnc2N)cc1	–	–	–	33.3	> 10	1.6	10.3	–	–
Cc1ccc(-n2c(C(=O)c3sc(N4CCOCC4)nc3-c3ccccc3)cnc2N)cc1	–	–	–	> 100	> 10	17.8	34	–	–

Second part, led by results:

inhibition [1]	inhibition [2]	inhibition [3]	Ki (Adenosine receptor A1) [µM]	Ki (Adenosine receptor A2b) [µM]	Ki (Adenosine receptor A3) [µM]	Ki (Adenosine receptor A2a) [µM]	Compound	Ratio Ki (Homo sapiens [4])	Ratio Ki (Homo sapiens [5])
inactive	inactive	–	–	–	–	–	Nc1ncc(C(=O)c2ccncc2)n1-c1ccc(C(F)(F)F)cc1	–	–
inactive	inactive	–	–	–	–	–	Nc1ncc(C(=O)c2ccncc2)n1-c1ccc(F)cc1	–	–
inactive	inactive	inactive	–	–	–	–	Cc1ccc(C(=O)c2cnc(N)n2-c2ccc(Cl)cc2)cc1	–	–
–	–	–	37.5	> 10	0.487	12.4	Cc1ccc(Nc2nc(C)c(C(=O)c3cnc(N)n3-c3ccc(F)cc3)s2)cc1	20 to 40	20 to 40
inactive	inactive	Active	–	–	–	–	Cc1ccc(C(=O)c2cnc(N)n2-c2ccccc2Cl)cc1	–	–
inactive	inactive	inactive	–	–	–	–	Cc1ccc(C(=O)c2cnc(N)n2-c2ccc(F)cc2)cc1	–	–
–	–	–	19.8	> 10	0.871	13	Cc1nc(Nc2ccc(Cl)cc2)sc1C(=O)c1cnc(N)n1-c1ccc(F)cc1	–	–
inactive	inactive	inactive	–	–	–	–	COc1ccc(C(=O)c2cnc(N)n2-c2ccc(F)cc2)cc1	–	–
inactive	inactive	Active	–	–	–	–	Nc1ncc(C(=O)c2ccncc2)n1-c1ccc(Cl)cc1	–	–
inactive	inactive	Active	–	–	–	–	Nc1ncc(C(=O)c2ccc(Cl)cc2)n1-c1ccc(C(F)(F)F)cc1	–	–
inactive	inactive	inactive	–	–	–	–	Nc1ncc(C(=O)c2ccc(Cl)cc2)n1-c1ccc(F)cc1	–	–
inactive	inactive	Active	–	–	–	–	Nc1ncc(C(=O)c2ccc(Cl)cc2)n1-c1ccc(F)c(Cl)c1	–	–
inactive	inactive	Active	–	–	–	–	Cc1ccc(C(=O)c2cnc(N)n2-c2cccc(Cl)c2)cc1	–	–
